Among the test systems are Enterococcus faecium; Enterococcus faecalis; Enterococcus faecium VR; Enterococcus faecalis VR; Staphylococcus aureus MR; Klebsiella pneumoniae; Citrobacter sp.; Staphylococcus aureus; Enterobacter cloacae; Streptococcus pneumoniae; Candida albicans C627.
Common to all, as to assay: ≥ marks a high value that may be exact or a test limit, other limits are often not marked, values filed in µg/mL are converted to µM
Test [1] deals with Staphylococcus aureus KCTC 1621.
Test [2] relates to Salmonella typhimurium KCTC 1926.
The test system of test [3] is Bacillus subtilis KCTC 3068.
The subject of test [4] is Staphylococcus epidermidis KCTC 1917.
Test [5] deals with Pseudomonas aeruginosa KCTC 1637.
Test [6] has as its system Escherichia coli KCTC 1682.
Test [7] concerns Pseudomonas aeruginosa ATCC 15442.
Test [8] deals with Staphylococcus aureus ATCC 25923.
For test [9], the system named is Acinetobacter baumannii ATCC 15308.
The test system of test [10] is Escherichia coli ATCC 25922.
Test [11] relates to Escherichia coli ATCC 10536.
For test [12], the system named is Escherichia coli DH5alpha.
Test [13] has as its system Bacillus subtilis ATCC 6633.
The subject of test [14] is Staphylococcus aureus ATCC 9144.
For test [15], the system named is Pseudomonas aeruginosa ATCC BAA-427.
Test [16] relates to Staphylococcus aureus C623.
For test [17], the system named is Enterococcus faecium mic80.
Test [18] has as its system Escherichia coli ESBL 63103.
Test [19] relates to Pseudomonas aeruginosa H103.
Test [20] relates to Pseudomonas aeruginosa LES400.
Test [21] concerns Pseudomonas aeruginosa 213.

Converted amounts (≈) assume the structure as drawn.

Usually MIC stands for the lowest concentration found to suppress growth. Lower therefore signals greater potency. For the molecule `CC[C@H](C)[C@H](NC(=O)[C@H](CS)NC(=O)[C@H](Cc1cnc[nH]1)NC(=O)[C@H](C)NC(=O)[C@H](C)N)C(=O)N[C@@H](CCC(N)=O)C(=O)N[C@@H](CC(C)C)C(=O)NCC(=O)N[C@@H](CCCCN)C(=O)N[C@@H](CCCN=C(N)N)C(N)=O` [AAHCIQLGKR], the MIC (in the test on Enterococcus faecium; in [1]; in test [2]; in test [3]; against Enterococcus faecalis; in the test on Enterococcus faecium VR) was 30 µM (≈ 32.9 µg/mL) throughout. Further, the minimum inhibitory concentration (MIC) (in test [4]; in test [5]; in test [6]; in the test with Enterococcus faecalis VR; against Staphylococcus aureus MR) was 30 µM (≈ 32.9 µg/mL) throughout.

With `CC(C)C[C@H](NC(=O)[C@H](CS)NC(=O)[C@H](Cc1cnc[nH]1)NC(=O)[C@H](C)NC(=O)[C@H](C)N)C(=O)N[C@@H](C)C(=O)N[C@@H](CCCCN)C(=O)N[C@@H](CCCN=C(N)N)C(=O)N[C@@H](CCCCN)C(=O)N[C@@H](CCCCN)C(N)=O` [AAHCLAKRKK], the minimal inhibitory concentration (MIC) (against Enterococcus faecium; in test [1]; in [2]; in test [3]; against Enterococcus faecalis; in the test on Enterococcus faecium VR) was 30 µM throughout. In addition, the minimum inhibitory concentration (MIC) (in test [4]; in test [5]; in [6]; in the test on Enterococcus faecalis VR; against Staphylococcus aureus MR) was 30 µM in each case.

On to `CC(C)C[C@H](NC(=O)[C@H](Cc1ccccc1)NC(=O)[C@H](CC(C)C)NC(=O)[C@H](CS)NC(=O)[C@H](Cc1cnc[nH]1)NC(=O)[C@@H](NC(=O)[C@H](C)N)[C@@H](C)O)C(=O)N[C@@H](CCCCN)C(=O)N[C@@H](CCCCN)C(=O)N[C@@H](CCCN=C(N)N)C(N)=O` [ATHCLFLKKR], for which the MIC worked out at 30 µM against Enterococcus faecium; 15 µM in test [1]; 15 µM in [2]; 7.5 µM in test [3]; 30 µM against Enterococcus faecalis; 30 µM in the test on Enterococcus faecium VR. Besides, the minimum inhibitory concentration (MIC) in test [4] came out at 15 µM; in test [5], 15 µM; in test [6], 15 µM; against Enterococcus faecalis VR, 30 µM; against Staphylococcus aureus MR, 15 µM.

As to `CC[C@H](C)[C@H](NC(=O)[C@H](CCSC)NC(=O)[C@H](C)NC(=O)[C@@H]1CCCN1C(=O)[C@@H]1CCCN1C(=O)[C@H](CCCN=C(N)N)NC(=O)[C@H](CCCCN)NC(=O)[C@@H](NC(=O)[C@H](CC(C)C)NC(=O)CNC(=O)CNC(=O)[C@H](CC(C)C)NC(=O)[C@@H](N)Cc1ccccc1)[C@@H](C)CC)C(=O)N[C@H]1CSSC[C@@H](C(=O)O)NC(=O)[C@H](CCCCN)NC(=O)[C@H](CCCCN)NC(=O)[C@H](CCCN=C(N)N)NC(=O)[C@H](C(C)C)NC(=O)[C@H](C)NC1=O` [FLGGLIKRPPAMICAVRKKC], the minimal inhibitory concentration (MIC) with Klebsiella pneumoniae is > 114 µM; in test [7] it was ≥ 114 µM; in test [8], > 114 µM; against Citrobacter sp. it was ≥ 114 µM; in test [9], ≥ 114 µM; in the test with Staphylococcus aureus, > 114 µM. The MIC against Enterobacter cloacae was ≥ 114 µM; against Streptococcus pneumoniae, ≥ 114 µM; in [10], > 114 µM.

Regarding `CC[C@H](C)[C@H](NC(=O)[C@H](CC(C)C)NC(=O)CNC(=O)CNC(=O)[C@H](CC(C)C)NC(=O)[C@@H](N)Cc1ccccc1)C(=O)N[C@@H](CCCCN)C(=O)N[C@@H](Cc1c[nH]c2ccccc12)C(=O)N1CCC[C@H]1C(=O)N[C@@H](Cc1c[nH]c2ccccc12)C(=O)N[C@@H](Cc1c[nH]c2ccccc12)C(=O)N1CCC[C@H]1C(=O)N[C@@H](Cc1c[nH]c2ccccc12)C(=O)N[C@@H](CCCN=C(N)N)C(=O)N[C@@H](CCCN=C(N)N)C(N)=O` [FLGGLIKWPWWPWRR], the minimum inhibitory concentration (MIC) is > 125 µM with Klebsiella pneumoniae; 15.6 µM (≈ 31.2 µg/mL) in test [7]; 3.91 µM (≈ 7.81 µg/mL) in test [8]; ≥ 125 µM against Citrobacter sp.; 31.3 µM (≈ 62.5 µg/mL) in test [9]; 3.91 µM (≈ 7.81 µg/mL) in the test with Staphylococcus aureus. Also, the minimal inhibitory concentration (MIC) with Enterobacter cloacae is ≥ 125 µM; against Streptococcus pneumoniae, 3.91 µM (≈ 7.81 µg/mL); in test [10], 3.91 µM (≈ 7.81 µg/mL).

Consider `CC[C@H](C)[C@H](NC(=O)CN)C(=O)NCC(=O)N[C@@H](C)C(=O)N[C@H](C(=O)N[C@@H](CC(C)C)C(=O)N[C@@H](CCCCN)C(=O)N[C@H](C(=O)N[C@@H](C)C(=O)N[C@H](C(=O)N[C@H](C(=O)NCC(=O)N[C@@H](CC(C)C)C(=O)N1CCC[C@H]1C(=O)N[C@@H](C)C(=O)N[C@@H](CC(C)C)C(=O)N[C@H](C(=O)N[C@@H](CO)C(=O)N[C@@H](Cc1c[nH]c2ccccc12)C(=O)N[C@H](C(=O)N[C@@H](CCCCN)C(=O)N[C@@H](CCCN=C(N)N)C(=O)N[C@@H](CCCCN)C(=O)N[C@@H](CCCN=C(N)N)C(=O)N[C@@H](CCC(N)=O)C(=O)N[C@@H](CCC(N)=O)C(N)=O)[C@@H](C)CC)[C@@H](C)CC)[C@@H](C)O)[C@@H](C)O)C(C)C)C(C)C` [GIGAVLKVATTGLPALISWIKRKRQQ], for which the minimum inhibitory concentration (MIC) in test [11] was 3.2 µM (≈ 8.97 µg/mL); in test [12] it was 4.3 µM (≈ 12.1 µg/mL); in test [13], 2.4 µM (≈ 6.73 µg/mL); in [14], 3.6 µM (≈ 10.1 µg/mL).

For `CC[C@H](C)[C@H](N)C(=O)N[C@@H](CC(C)C)C(=O)NCC(=O)N[C@@H](CCCCN)C(=O)N[C@H](C(=O)N[C@@H](Cc1c[nH]c2ccccc12)C(=O)N[C@@H](CCCCN)C(=O)NCC(=O)N[C@@H](CCCCN)C(=O)N[C@@H](CCCCN)C(=O)N[C@@H](CO)C(=O)N[C@@H](CC(C)C)C(=O)N[C@@H](Cc1ccccc1)C(N)=O)[C@@H](C)CC` [ILGKIWKGKKSLF], the minimum inhibitory concentration (MIC) in test [11] was found to be 1 µM (≈ 1.52 µg/mL); in test [13], 1 µM (≈ 1.52 µg/mL); in [8], 1 µM (≈ 1.52 µg/mL); in [15], 2 µM (≈ 3.03 µg/mL); in test [10], 2 µM (≈ 3.03 µg/mL).

With `NCCCC[C@H](N)C(=O)N[C@@H](Cc1c[nH]c2ccccc12)C(=O)N[C@@H](Cc1c[nH]c2ccccc12)C(=O)N[C@@H](CCCN=C(N)N)C(=O)N[C@@H](Cc1c[nH]c2ccccc12)C(=O)N[C@@H](CCCN=C(N)N)C(=O)N[C@@H](CCCN=C(N)N)C(=O)N[C@@H](Cc1c[nH]c2ccccc12)C(=O)N[C@@H](Cc1c[nH]c2ccccc12)C(=O)O` [KWWRWRRWW], the MIC in the test with Candida albicans C627 was 5.18 µM (≈ 8 µg/mL); in test [16], 5.18 µM (≈ 8 µg/mL); in test [8], 5.18 µM (≈ 8 µg/mL); in [17], 20.7 µM (≈ 32 µg/mL); in [18] it was ≥ 82.8 µM; in [19], 20.7 µM (≈ 32 µg/mL). For the same molecule, the minimum inhibitory concentration (MIC) in test [20] was ≥ 41.4 µM; in [21], ≥ 82.8 µM.

`CC[C@H](C)[C@H](NC(=O)[C@H](Cc1c[nH]c2ccccc12)NC(=O)[C@H](Cc1c[nH]c2ccccc12)NC(=O)[C@H](CCCN=C(N)N)NC(=O)[C@H](CCCCN)NC(=O)[C@H](Cc1c[nH]c2ccccc12)NC(=O)[C@H](CC(C)C)NC(=O)[C@@H](N)CCCN=C(N)N)C(=O)N[C@@H](CCCN=C(N)N)C(=O)O` [RLWKRWWIR]: the minimum inhibitory concentration (MIC) with Candida albicans C627 was 11.4 µM (≈ 16 µg/mL); in [16] it was ≥ 45.7 µM; in test [8], 91.4 µM (≈ 128 µg/mL); in test [17], ≥ 45.7 µM; in test [18], ≥ 45.7 µM; in [19] it was ≥ 91.4 µM. Besides, the MIC in [20] and in test [21] was ≥ 91.4 µM each time.

The values above are taken from DBAASP.
